Measured values reported in patent US20100190710A1, “IL-23 RECEPTOR ANTAGONISTS AND USES THEREOF” (Valorisation HSJ, Societe en Commandite, priority 2007, published 2010).
Entries after “also recorded” stand apart in the source; their conditions may differ. Peptide text beside a SMILES is read from it.

Columns and labels:
IL-23R [1] = biological target: T1, IL-23R (Mus musculus, UniProt Q8K4B4); experiment: IL-23-induced STAT3 phosphorylation in differentiated TH17 cells (Alpha Screen SureFire p-STAT-3); assay type: cell-based; settings: listed as APG-2309
T1 construct: Spleens were sterilely removed from mice, sliced, and mashed in the presence of PBS buffer; from tissue; host or cells: mouse spleen: freshly isolated splenocytes, and CD4+ cells differentiated into TH17 cells
T1 sequence (Q8K4B4 24-644): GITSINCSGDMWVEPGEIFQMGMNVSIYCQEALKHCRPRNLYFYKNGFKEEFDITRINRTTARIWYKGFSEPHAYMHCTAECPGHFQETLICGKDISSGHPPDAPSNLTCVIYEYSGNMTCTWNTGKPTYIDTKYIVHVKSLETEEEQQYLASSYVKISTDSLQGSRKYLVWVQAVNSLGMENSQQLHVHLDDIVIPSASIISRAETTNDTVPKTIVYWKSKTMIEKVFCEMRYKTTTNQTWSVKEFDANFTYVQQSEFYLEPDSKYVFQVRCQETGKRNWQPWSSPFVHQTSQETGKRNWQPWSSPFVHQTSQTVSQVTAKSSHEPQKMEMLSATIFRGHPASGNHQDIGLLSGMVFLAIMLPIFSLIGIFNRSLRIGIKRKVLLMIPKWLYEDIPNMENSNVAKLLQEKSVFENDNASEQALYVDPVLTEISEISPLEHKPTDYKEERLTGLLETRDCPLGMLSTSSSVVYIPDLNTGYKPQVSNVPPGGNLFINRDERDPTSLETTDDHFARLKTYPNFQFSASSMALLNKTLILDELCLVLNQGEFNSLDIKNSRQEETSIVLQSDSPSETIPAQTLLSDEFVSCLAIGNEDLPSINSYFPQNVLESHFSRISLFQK
Procedure: CD4+ cells were isolated from 2.5×10^8 splenocytes with the EasySep isolation kit (StemCell Technologies) according to the manufacturer's instructions. CD4+ cells were incubated overnight with non-essential amino acids and anti-CD3 and CD28 antibodies (see above). The next day the cells were split into 12-well plates (1-2×10^6 cells/well) and incubated with complete RPMI medium (10% FBS, Pen/Strep, and non-essential amino acids (1×)) and a differentiation cocktail containing 2 μg/ml of anti-CD3, 2 μg/ml of anti-CD28, 5 ng/ml of TGFb1, 20 ng/ml of IL-6, 10 ng/ml of IL-23, 2 μg/ml of anti-rat anti IFNγ and 10 μg/ml of anti-mouse IL-4 (final concentrations).
Splenocytes or TH17 cells were distributed in 384-well plates (Optiplate; Perkin Elmer) (100,000 cells/well). Cells were pre-incubated for 30 minutes with different concentrations of peptide APG-2305 or APG-2309 and incubated with 25 ng/ml of IL-23 (R&D systems) for 10 minutes. STAT3 phosphorylation was determined with the kit Alpha Screen SureFire p-STAT-3 assay from Perkin Elmer according to manufacturer's instructions. Briefly, after incubation with IL-23, cells were lysed and contacted with (1) protein A acceptor conjugated beads coated with anti-p-STAT-3 (Tyr705) and (2) streptavidin-coated donor beads. The resulting signal was measured with a Perkin Elmer Wallac En vision 2104 Multilabel reader. […]

IL-23 receptor = biological target: T2, IL-23 receptor (Homo sapiens, UniProt Q5VWK5); experiment: IL-23-induced TNFα production in PMA-activated HL-60 monocytes (ELISA); assay type: cell-based; set-up: endogenous in cells; settings: IL-23 10 ng/ml, ELISA 24 hours after stimulation, read-out: Emax, inhibition of IL-23-induced TNF formation
T2 sequence (Q5VWK5 24-629): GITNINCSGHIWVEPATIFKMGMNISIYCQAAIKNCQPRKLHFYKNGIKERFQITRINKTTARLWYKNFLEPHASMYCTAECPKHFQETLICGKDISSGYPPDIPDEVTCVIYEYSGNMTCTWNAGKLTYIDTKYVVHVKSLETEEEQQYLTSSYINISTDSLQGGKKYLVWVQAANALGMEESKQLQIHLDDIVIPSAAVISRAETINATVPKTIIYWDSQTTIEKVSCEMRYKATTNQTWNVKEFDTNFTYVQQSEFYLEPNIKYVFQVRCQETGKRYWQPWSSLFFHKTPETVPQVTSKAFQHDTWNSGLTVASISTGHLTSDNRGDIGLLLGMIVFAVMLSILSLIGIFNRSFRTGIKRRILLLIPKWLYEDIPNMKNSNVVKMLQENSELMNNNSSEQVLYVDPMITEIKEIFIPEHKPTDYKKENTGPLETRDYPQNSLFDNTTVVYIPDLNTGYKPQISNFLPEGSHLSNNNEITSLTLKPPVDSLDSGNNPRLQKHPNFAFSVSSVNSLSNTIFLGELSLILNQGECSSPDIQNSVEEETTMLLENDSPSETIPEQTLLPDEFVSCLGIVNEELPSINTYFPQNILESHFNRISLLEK
Procedure: FIGS. 3A and 3B are graphs showing inhibition of IL-23-induced STAT3 phosphorylation and TNFα generation. […] Western Blot analysis was performed on cell lysates, and immunoblot densitometry was measured using ImagePro4+ software. […] TNFα production was quantified by ELISA 24 hours after stimulation with IL-23 using the Quantikine ELISA Kit (R&D systems).
D-peptides 2303, 2305, 2307 and 2309 (1 μM) inhibit IL-23-induced STAT3 phosphorylation in phorbol 12-myristate 13-acetate (PMA)-activated human monocytes (HL-60) (FIG. 2).

[2] = system: PMA-induced dermatitis (ear); experiment: PMA-induced dermatitis, intraperitoneal injection; assay type: in vivo, CD-1 mice; settings: intraperitoneal injection (0.1-1 mg/kg/day)
Procedure: FIG. 12 is a series of images and graphs showing the effect of intraperitoneal injection of the 2309 peptide on PMA-induced dermatitis. On day 1, 10 μl of a 0.01% solution of PMA (v/v in acetone) was applied on the external and internal surfaces of the left ear of CD-1 mice (images in left column). Twenty-four hours later, different doses of the 2309 peptide were injected intraperitoneally (0.1 mg/kg/day; 0.5 mg/kg/day; 1 mg/kg/day bid; n=4 for each group treatment). Animals were sacrificed on day 4 (6 hours after the last 2309 injection). The weight (right column, top graph) and thickness (right column, bottom graph) of all ear punches were then determined and the peptide-treated ears with PMA were compared to PMA-only ears.

IL-23R [3] = biological target: T1, IL-23R; experiment: IL-23-induced STAT3 phosphorylation in freshly isolated splenocytes (Alpha Screen SureFire p-STAT-3); assay type: cell-based; settings: freshly isolated splenocytes; listed as APG-2309
Procedure: Spleens were sterilely removed from mice, sliced, and mashed in the presence of PBS buffer, 2% fetal bovine serum, and 1 mM EDTA. Tissue was allowed to pass through a number 26 syringe and was filtered through a 70 μm mesh nylon strainer. Cells were cultured with non-essential amino acids, 2 μg/ml of anti-CD3, and 20 μg/ml of anti-CD-28 as survival and differentiation factors.
Splenocytes or TH17 cells were distributed in 384-well plates (Optiplate; Perkin Elmer) (100,000 cells/well). Cells were pre-incubated for 30 minutes with different concentrations of peptide APG-2305 or APG-2309 and incubated with 25 ng/ml of IL-23 (R&D systems) for 10 minutes. STAT3 phosphorylation was determined with the kit Alpha Screen SureFire p-STAT-3 assay from Perkin Elmer according to manufacturer's instructions. Briefly, after incubation with IL-23, cells were lysed and contacted with (1) protein A acceptor conjugated beads coated with anti-p-STAT-3 (Tyr705) and (2) streptavidin-coated donor beads. The resulting signal was measured with a Perkin Elmer Wallac En vision 2104 Multilabel reader. Graphs were generated using GraphPrism 4 software.
The effect of peptide APG-2305 and APG-2309 derivatives on IL-23-induced STAT3 phosphorylation was determined using CD-1 mice freshly isolated splenocytes and the Alpha Screen p-STAT3 assay (see above materials and methods) (FIGS. 6 and 7). […] As described herein, based on the efficacy of derivatives, we have identified regions in APG-2305 and APG-2309 peptides that are important for their ability to affect IL-23R activity.

Structure (SMILES): CSCC[C@@H](N)C(=O)N[C@H](CCC(=O)O)C(=O)N[C@H](CCC(=O)O)C(=O)N[C@H](CO)C(=O)N[C@H](CCCCN)C(=O)N[C@H](CCC(N)=O)C(=O)N[C@H](CC(C)C)C(=O)N[C@H](CCC(N)=O)C(=O)N[C@H](CC(C)C)C(=O)O [Peptide 2309, MEESKQLQL] (HELM PEPTIDE1{[dM].[dE].[dE].[dS].[dK].[dQ].[dL].[dQ].[dL]}$$$$V2.0; N-terminus and C-terminus assumed)
- effect on IL-23-induced STAT3 phosphorylation (IL-23R [1]): inhibit; also recorded: showed efficacy
- Emax (IL-23 receptor): ~80%
- redness and ear weight [2]: able to treat PMA-induced dermatitis as evidenced by a decrease in redness and ear weight
- effect on IL-23-induced STAT3 phosphorylation (IL-23R [3]): inhibit; also recorded: showed efficacy
